The structures appear in SMILES notation. Read-outs that look alike come from different tables or passages of the source.

Common to all, as to format: cell-based
In one assay the test system is wild-type HIV-1xxLAI. As to the kind of experiment: Antiviral potency in primary human lymphocytes, wild type. The note with it: Human immunodeficiency virus 1, Lymphocyte.
Another assay has as its system HIV-1 containing M184V. As to the kind of experiment: microbe, parasite or virus in culture. Conditions: for EC50 / EC90: Human immunodeficiency virus 1, Lymphocyte; for FI50 (ratio of EC50 against mutant virus:EC50 against wild-type xxLAI) / FI90 (ratio of EC90 against mutant virus:EC90 against wild-type xxLAI): M184V.
The subject of the next assay is HIV-1 containing K65R. As to the kind of experiment: microbe, parasite or virus in culture. The note with it: for EC50 / EC90: Human immunodeficiency virus 1, Lymphocyte; for FI50 (ratio of EC50 against mutant virus:EC50 against wild-type xxLAI) / FI90 (ratio of EC90 against mutant virus:EC90 against wild-type xxLAI): K65R.
A further assay has as its system HIV-1 containing L74V. As to the kind of experiment: microbe, parasite or virus in culture. The note with it: for EC50 / EC90: Human immunodeficiency virus 1, Lymphocyte; for FI50 (ratio of EC50 against mutant virus:EC50 against wild-type xxLAI) / FI90 (ratio of EC90 against mutant virus:EC90 against wild-type xxLAI): L74V.
Assay [1] concerns HIV-1 containing A62V/V75I/F77L/F116Y/Q151M. The assay is described as follows: microbe, parasite or virus in culture. Conditions: for FI50 (ratio of EC50 against mutant virus:EC50 against wild-type xxLAI) / FI90 (ratio of EC90 against mutant virus:EC90 against wild-type xxLAI): A62V/V75I/F77L/F116Y/Q151M; for EC50 / EC90: Human immunodeficiency virus 1, Lymphocyte.
The subject of assay [2] is HIV-1 containing 4xAZT (D67N/K70R/T215Y/K219Q). The assay is described as follows: microbe, parasite or virus in culture. Conditions: for FI50 (ratio of EC50 against mutant virus:EC50 against wild-type xxLAI) / FI90 (ratio of EC90 against mutant virus:EC90 against wild-type xxLAI): 4xAZT (D67N/K70R/T215Y/K219Q); for EC50 / EC90: Human immunodeficiency virus 1, Lymphocyte.

Assay [3] has as its system various NRTI-resistant HIV-1. The assay is described as follows: Antiviral potency against various NRTI-resistant HIV-1 in primary human lymphocytes (summary over strains). Conditions: K65R, M184V, L74V, A62V/V75I/F77L/F116Y/Q151M, 4xAZT. The text has this:
FI50 is the ratio of EC50 against mutant virus:EC50 against wild-type xxLAI. FI90 is the ratio of EC90 against mutant virus:EC90 against wild-type xxLAI.

The mark [4] stands for this setting: xxLAI, primary human lymphocytes, read-out: EC50.
The mark [5] stands for this setting: xxLAI, primary human lymphocytes, read-out: EC90.

As to `O=C1Nc2ccc(Cl)cc2[C@@](C#CC2CC2)(C(F)(F)F)O1` [EFV, efavirenz], the EC50 was 0.02 ± 0.03 µM with wild-type HIV-1xxLAI (setting [4]); 0.01 ± 0.006 µM in the assay on HIV-1 containing M184V; 0.007 µM with HIV-1 containing K65R; 0.06 ± 0.07 µM in the assay on HIV-1 containing L74V; 0.2 ± 0.3 µM in assay [1]; 0.07 ± 0.04 µM in assay [2]. Also, the EC90 with wild-type HIV-1xxLAI (setting [5]) was 0.2 ± 0.3 µM; with HIV-1 containing M184V it was 0.08 ± 0.08 µM; in the assay on HIV-1 containing K65R, 0.02 ± 0.01 µM; in assay [1], 0.44 ± 0.6 µM. The “FI50 (ratio of EC50 against mutant virus:EC50 against wild-type xxLAI)” value in the assay with HIV-1 containing M184V is 0.5; in the assay on HIV-1 containing K65R, 0.3; in the assay on HIV-1 containing L74V, 2.6; in assay [1], 7.7; in assay [2] it was 3.1. Besides, the “FI90 (ratio of EC90 against mutant virus:EC90 against wild-type xxLAI)” value in the assay with HIV-1 containing M184V stood at 0.4; in the assay on HIV-1 containing K65R, 0.1; in the assay on HIV-1 containing L74V it was 1.1; in assay [1], 2; in assay [2] it was 1. In assay [3], the “antiviral potency for wild-type HIV-1xxLAI versus NRTI-resistant HIV-1” value was “similarly potent across all NRTI resistant strains”.
Regarding `Cc1cn([C@H]2C=C[C@@H](CO)O2)c(=O)[nH]c1=O` [Compound D4T, 2′,3′-dideoxy-2′,3′-didehydrothymidine], the EC50 with wild-type HIV-1xxLAI turned out to be 1 ± 0.5 µM; with HIV-1 containing M184V it was 0.6 ± 0.8 µM; in the assay with HIV-1 containing K65R, 1.5 ± 0.6 µM; with HIV-1 containing L74V it was 0.9 ± 0.8 µM; in assay [1], 6.8 ± 5.7 µM; in assay [2] it was 27.8 ± 37.1 µM. In addition, the EC90 in the assay on wild-type HIV-1xxLAI worked out at 6.4 ± 0.4 µM; in the assay on HIV-1 containing M184V it was 2.6 ± 2.5 µM; in the assay on HIV-1 containing K65R, 7.9 ± 0.3 µM; in the assay on HIV-1 containing L74V, 9.8 ± 2.4 µM; in assay [1], 70.3 ± 51.4 µM; in assay [2], 53.2 ± 66.3 µM. Besides, the “FI50 (ratio of EC50 against mutant virus:EC50 against wild-type xxLAI)” value with HIV-1 containing M184V came to 0.6; with HIV-1 containing K65R, 1.5; in the assay with HIV-1 containing L74V, 0.9; in assay [1] it was 6.9. The “FI90 (ratio of EC90 against mutant virus:EC90 against wild-type xxLAI)” value is listed as 0.4 in the assay with HIV-1 containing M184V; 1.2 in the assay on HIV-1 containing K65R; 1.5 with HIV-1 containing L74V; 11 in assay [1]; 8.3 in assay [2].
On to `OC[C@@H]1CC[C@H](n2cnc3c(O)ncnc32)O1` [ddI, 2′,3′-dideoxyinosine], for which the EC50 turned out to be 11.5 ± 6.6 µM in the assay on wild-type HIV-1xxLAI (setting [4]); 11.5 ± 9.1 µM in the assay with HIV-1 containing M184V; 21.2 ± 18.3 µM in the assay with HIV-1 containing K65R; 13.2 ± 8.5 µM with HIV-1 containing L74V; 40.5 ± 52.1 µM in assay [1]; 35.5 ± 31 µM in assay [2]. Also, the EC90 in the assay with wild-type HIV-1xxLAI (setting [5]) is 55.4 ± 23 µM; in the assay on HIV-1 containing M184V it was 44.9 ± 26.2 µM; in the assay with HIV-1 containing K65R it was 86.7 ± 0.8 µM; in the assay with HIV-1 containing L74V, 80.9 ± 16.6 µM; in assay [1], 83.5 ± 28.6 µM; in assay [2] it was 77.1 ± 32.4 µM. The “FI50 (ratio of EC50 against mutant virus:EC50 against wild-type xxLAI)” value in the assay with HIV-1 containing M184V turned out to be 1; with HIV-1 containing K65R, 1.8; in the assay with HIV-1 containing L74V, 1.1; in assay [1] it was 3.5; in assay [2], 3.1. Also, the “FI90 (ratio of EC90 against mutant virus:EC90 against wild-type xxLAI)” value in the assay on HIV-1 containing M184V is recorded as 0.8; in the assay on HIV-1 containing K65R it was 1.6; in the assay with HIV-1 containing L74V it was 1.1; in assay [1], 1.5; in assay [2], 1.4.

The values are drawn from US20190134039A1, “ANTIVIRAL JAK INHIBITORS USEFUL IN TREATING OR PREVENTING RETROVIRAL AND OTHER VIRAL INFECTIONS” (EMORY UNIVERSITY, priority 2011, published 2019).
